In patent US20220162191A1, “SMALL MOLECULE MODULATORS OF IL-17” (LEO PHARMA A/S, priority 2019, published 2022):

biological target: T1, human IL-17AA (Homo sapiens, UniProt Q16552); assay: IL-8 release assay in human epithelial keratinocytes adult (HEKa); type: cell-based; conditions: 3 ng/ml human IL-17AA + 10 ng/ml human TNFalpha, 68-72 h, IL-8 by HTRF, read-out: Rel EC50 L-8 release assay
T1 construct: host or cells: HEK (human embryonic kidney) cells
T1 sequence (Q16552 24-155) 1: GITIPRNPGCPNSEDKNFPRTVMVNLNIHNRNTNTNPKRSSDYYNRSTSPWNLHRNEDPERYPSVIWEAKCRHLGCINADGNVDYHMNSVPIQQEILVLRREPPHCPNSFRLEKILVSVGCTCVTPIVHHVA
T1 sequence (Q16552 24-155) 2: T1 sequence (Q16552 24-155) 1
In short: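 IL-8 secretion, quantified by HTRF (665/620 nm) as percent of controls, served as the readout after 68–72 h culture of HEKa cells with compound plus IL-17AA (3 ng/ml final) and TNF-alpha (10 ng/ml final). Four-parameter logistic curves gave relative IC50 and Emax.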

Row | EC50 | SMILES
1 | > 1000 nM | CC(C)n1cc(-c2ccc(Cl)c(C[C@H](NC(=O)C3CC3(C)C)C(=O)Nc3ccc(-c4nncn4C)cc3)c2)ccc1=O (stereo partly drawn) [Example 154, N-[(1S)-1-[[2-chloro-5-(1-isopropyl-6-oxo-3-pyridyl)phenyl]methyl]-2-[4-(4-methyl-1,2,4-triazol-3-yl)anilino]-2-oxo-ethyl]-2,2-dimethyl-cyclopropanecarboxamide]
2 | > 1000 nM | Cc1cnn(C)c1-c1ccc(NC(=O)[C@H](Cc2cc(-c3ccc(=O)n(C(C)C)c3)ccc2Cl)NC(=O)c2cocn2)cc1 [Example 333, N-[(1S)-1-[[2-chloro-5-(1-isopropyl-6-oxo-3-pyridyl)phenyl]methyl]-2-[4-(2,4-dimethylpyrazol-3-yl)anilino]-2-oxo-ethyl]oxazole-4-carboxamide]
3 | > 1000 nM | Cc1cnn(C)c1-c1ccc(NC(=O)[C@@H](NC(=O)C2(F)CC2)[C@@H]2CCc3ccc(-c4cc(N5C[C@@H]6C[C@H]5CO6)cnn4)cc32)cc1 [Example 383, N-[(1S)-2-[4-(2,4-dimethylpyrazol-3-yl)anilino]-1-[(1R)-6-[5-[(1S,4S)-2-oxa-5-azabicyclo[2.2.1]heptan-5-yl]pyridazin-3-yl]indan-1-yl]-2-oxo-ethyl]-1-fluoro-cyclopropanecarboxamide]
4 | < 100 nM | Cc1n[nH]c(C)c1-c1ccc(NC(=O)[C@@H](NC(=O)c2ccnn2C)[C@@H]2CCCc3ccc(-c4ccc5c(c4)CNC5)cc32)cc1 [Example 35, N-[(1S)-2-[4-(3,5-dimethyl-1H-pyrazol-4-yl)anilino]-1-[(1R)-7-isoindolin-5-yltetralin-1-yl]-2-oxo-ethyl]-2-methyl-pyrazole-3-carboxamide]
5 | > 1000 nM | Cn1cnnc1-c1ccc(NC(=O)C(Cc2cc(-c3ccc(O)c(C(=O)N4CCOCC4)c3)ccc2Cl)NC(=O)c2ccnn2C)cc1 (centres unmarked) [Example 296, N-[1-[[2-chloro-5-[4-hydroxy-3-(morpholine-4-carbonyl)phenyl]phenyl]methyl]-2-[4-(4-methyl-1,2,4-triazol-3-yl)anilino]-2-oxo-ethyl]-2-methyl-pyrazole-3-carboxamide]
6 | < 100 nM | Cn1cncc1-c1ccc(NC(=O)C(Cc2cc(-c3cccc(C(C)(C)N)c3)ccc2Cl)NC(=O)c2ccnn2C)cc1 (centres unmarked) [Example 176, N-[1-[[5-[3-(1-amino-1-methyl-ethyl)phenyl]-2-chloro-phenyl]methyl]-2-[4-(3-methylimidazol-4-yl)anilino]-2-oxo-ethyl]-2-methyl-pyrazole-3-carboxamide]
7 | 100 to 1000 nM | Cc1cnn(C)c1-c1ccc(NC(=O)[C@@H](NC(=O)C2(F)CC2)[C@H](C)c2cccc(-c3cncc(N4C[C@@H]5C[C@H]4CO5)n3)c2)cc1 [Example 343, N-[(1S,2R)-1-[[4-(2,4-dimethylpyrazol-3-yl)phenyl]carbamoyl]-2-[3-[6-[(1S,4S)-2-oxa-5-azabicyclo[2.2.1]heptan-5-yl]pyrazin-2-yl]phenyl]propyl]-1-fluoro-cyclopropanecarboxamide]
8 | > 1000 nM | CC(C)n1cc(-c2ccc(Cl)c(CC(NC(=O)C(F)(F)c3ccccc3)C(=O)Nc3ccc(-c4nncn4C)cc3)c2)ccc1=O (centres unmarked) [Example 97, 3-[2-chloro-5-(1-isopropyl-6-oxo-3-pyridyl)phenyl]-2-[(2,2-difluoro-2-phenyl-acetyl)amino]-N-[4-(4-methyl-1,2,4-triazol-3-yl)phenyl]propanamide]

Continued, compound first:

Row | SMILES | EC50
9 | Cc1cc(-c2ccc(Cl)c(CC(NC(=O)c3ccnn3C)C(=O)Nc3ccc(-c4nncn4C)cc3)c2)ccc1C#N (centres unmarked) [Example 309, N-[1-[[2-chloro-5-(4-cyano-3-methyl-phenyl)phenyl]methyl]-2-[4-(4-methyl-1,2,4-triazol-3-yl)anilino]-2-oxo-ethyl]-2-methyl-pyrazole-3-carboxamide] | > 1000 nM
10 | Cc1nocc1C(=O)N[C@@H](Cc1cc(-c2ccnc(C(=O)C3CC3)c2)ccc1Cl)C(=O)Nc1ccc(-c2nncn2C)cc1 [Example 85, N-[(1S)-1-[[2-chloro-5-[2-(cyclopropanecarbonyl)-4-pyridyl]phenyl]methyl]-2-[4-(4-methyl-1,2,4-triazol-3-yl)anilino]-2-oxo-ethyl]-3-methyl-isoxazole-4-carboxamide] | > 1000 nM
11 | Cc1n[nH]c(C)c1-c1ccc(NC(=O)[C@@H](NC(=O)C2(F)CC2)[C@@H]2CCc3ccc(-c4cccc(N5C[C@@H]6C[C@H]5CN6)c4)cc32)cc1 [Example 373, N-[(1S)-1-[(1R)-6-[3-[(1S,4S)-2,5-diazabicyclo[2.2.1]heptan-2-yl]phenyl]indan-1-yl]-2-[4-(3,5-dimethyl-1H-pyrazol-4-yl)anilino]-2-oxo-ethyl]-1-fluoro-cyclopropanecarboxamide] | < 100 nM
12 | Cn1cnnc1-c1ccc(NC(=O)C(Cc2cc(-c3cccc(OC4CCC4)c3)ccc2Cl)NC(=O)c2ccnn2C)cc1 (centres unmarked) [Example 145, N-[1-[[2-chloro-5-[3-(cyclobutoxy)phenyl]phenyl]methyl]-2-[4-(4-methyl-1,2,4-triazol-3-yl)anilino]-2-oxo-ethyl]-2-methyl-pyrazole-3-carboxamide] | 100 to 1000 nM
13 | Cc1n[nH]c(C)c1-c1ccc(NC(=O)[C@@H](NC(=O)c2ccnn2C)[C@@H]2CCCc3ccc(-c4cnn(C5CC5)c4)cc32)cc1 [Example 26, N-[(1S)-1-[(1R)-7-(1-cyclopropylpyrazol-4-yl)tetralin-1-yl]-2-[4-(3,5-dimethyl-1H-pyrazol-4-yl)anilino]-2-oxo-ethyl]-2-methyl-pyrazole-3-carboxamide] | < 100 nM
14 | CC(C)n1cc(-c2ccc(Cl)c(CC(NC(=O)c3conc3C(F)(F)F)C(=O)Nc3ccc(-c4nncn4C)cc3)c2)ccc1=O (centres unmarked) [Example 95, N-[1-[[2-chloro-5-(1-isopropyl-6-oxo-3-pyridyl)phenyl]methyl]-2-[4-(4-methyl-1,2,4-triazol-3-yl)anilino]-2-oxo-ethyl]-3-(trifluoromethyl)isoxazole-4-carboxamide] | > 1000 nM
15 | Cc1n[nH]c(C)c1-c1ccc(NC(=O)[C@@H](NC(=O)c2ccnn2C)[C@@H]2CCc3ccc(-c4ccc(CN5CCC5)cc4)cc32)cc1 [Example 21, N-[(1S)-1-[(1R)-6-[4-(azetidin-1-ylmethyl)phenyl]indan-1-yl]-2-[4-(3,5-dimethyl-1H-pyrazole-4-yl)anilino]-2-oxo-ethyl]-2-methyl-pyrazole-3-carboxamide] | < 100 nM
16 | Cc1n[nH]c(C)c1-c1ccc(NC(=O)[C@@H](NC(=O)c2ccnn2C)[C@@H]2CCCc3ccc(-c4cnn(C(C)(C)C)c4)cc32)cc1 [Example 34, N-[(1S)-1-[(1R)-7-(1-tert-butylpyrazol-4-yl)tetralin-1-yl]-2-[4-(3,5-dimethyl-1H-pyrazol-4-yl)anilino]-2-oxo-ethyl]-2-methyl-pyrazole-3-carboxamide] | < 100 nM
17 | CN(C)[C@H]1CCN(c2cc(-c3ccc(Cl)c(CC(NC(=O)c4ccnn4C)C(=O)Nc4ccc(-c5cncn5C)cc4)c3)ccn2)C1 (stereo partly drawn) [Example 184, N-[1-[[2-chloro-5-[2-[(3S)-3-(dimethylamino)pyrrolidin-1-yl]-4-pyridyl]phenyl]methyl]-2-[4-(3-methylimidazol-4-yl)anilino]-2-oxo-ethyl]-2-methyl-pyrazole-3-carboxamide] | 100 to 1000 nM
18 | Cc1n[nH]c(C)c1-c1ccc(NC(=O)[C@@H](NC(=O)c2ccnn2C)[C@@H]2CCCc3ccc(-c4ccc5c(c4)CN(C)C5)cc32)cc1 [Example 37, N-[(1S)-2-[4-(3,5-dimethyl-1H-pyrazol-4-yl)anilino]-1-[(1R)-7-(2-methylisoindolin-5-yl)tetralin-1-yl]-2-oxo-ethyl]-2-methyl-pyrazole-3-carboxamide] | < 100 nM
19 | CC(c1cc(-c2ccc(=O)n(C(C)C)c2)ccc1Cl)C(NC(=O)c1ccnn1C)C(=O)Nc1ccc(-c2cncn2C)cc1 (centres unmarked) [Example 55, N-[2-[2-chloro-5-(1-isopropyl-6-oxo-3-pyridyl)phenyl]-1-[[4-(3-methylimidazol-4-yl)phenyl]carbamoyl]propyl]-2-methyl-pyrazole-3-carboxamide] | > 1000 nM
20 | CC(C)n1cc(-c2ccc3c(c2)[C@H]([C@H](NC(=O)c2ccnn2C)C(=O)Nc2ccc(-c4cncn4C)c(O)c2)CCC3)ccc1=O [Example 49, N-[(1S)-2-[3-hydroxy-4-(3-methylimidazol-4-yl)anilino]-1-[(1R)-7-(1-isopropyl-6-oxo-3-pyridyl)tetralin-1-yl]-2-oxo-ethyl]-2-methyl-pyrazole-3-carboxamide] | < 100 nM
21 | CC(C)n1cc(-c2ccc(Cl)c(C[C@H](NC(=O)OCc3ccccc3)C(=O)Nc3ccc(-c4nncn4C)cc3)c2)ccc1=O [Example 87, benzyl N-[(1S)-1-[[2-chloro-5-(1-isopropyl-6-oxo-3-pyridyl)phenyl]methyl]-2-[4-(4-methyl-1,2,4-triazol-3-yl)anilino]-2-oxo-ethyl]carbamate] | 100 to 1000 nM
22 | Cc1nocc1C(=O)NC(Cc1cc(-c2cccc(C(=O)N3CCC3)c2)ccc1Cl)C(=O)Nc1ccc(-c2nncn2C)cc1 (centres unmarked) [Example 113, N-[1-[[5-[3-(azetidine-1-carbonyl)phenyl]-2-chloro-phenyl]methyl]-2-[4-(4-methyl-1,2,4-triazol-3-yl)anilino]-2-oxo-ethyl]-3-methyl-isoxazole-4-carboxamide] | > 1000 nM
23 | Cc1n[nH]c(C)c1-c1ccc(NC(=O)[C@H](Cc2cc(-c3ccc(CN4C[C@H]5C[C@@H]4CO5)cc3)ccc2Cl)NC(=O)C2(F)CC2)cc1 [Example 228, N-[(1S)-1-[[2-chloro-5-[4-[[(1R,4R)-2-oxa-5-azabicyclo[2.2.1]heptan-5-yl]methyl]phenyl]phenyl]methyl]-2-[4-(3,5-dimethyl-1H-pyrazol-4-yl)anilino]-2-oxo-ethyl]-1-fluoro-cyclopropanecarboxamide] | 100 to 1000 nM
